# Source: US6124281A, “Azolobenzazepine derivatives as neurologically active agents” (Zeneca Limited, priority 1998, dated 2000)
# pIC50: −log10 of the molar value. Like-named read-outs stand apart in the source and are kept apart here.
# Legend:
# [1] = tested on: NMDA-induced excitatory response of red nucleus cells; test: Rat Red Nucleus Test; type: in vivo; settings: iv
# Experimental: The purpose of this test is to determine the effects of intravenously administered is glycine antagonists on the NMDA- induced excitatory response of red nucleus cells.
# The procedure for the red nucleus test is as follows. Rats are anesthetized with chloral hydrate (400 mg/kg ip) and the femoral vein is catheterized for iv drug administration. Five-barrel micropipettes are stereotaxically positioned in the red nucleus. Typically, three to four of the five barrels are filled as follows: the recording barrel with 2M potassium citrate. the current balancing barrel with 4M NaCl, the drug barrel with 25 mM NMDA, and another drug barrel with 2.5 mM quisqualic acid (QA is only used in selectivity studies). NMDA is iontophoretically applied with an ejection current that is adjusted depending on the sensitivity of each individual red nucleus cell. The NMDA is cycled on and off (usually 30-60 sec. on and 60-120 sec. off) and the firing rate of the cell during each period is recorded. Once the baseline firing rate of the cell has been established, the test drug is administered iv. The inhibitory effect of the drug on the NMDA-induced excitatory response of the red nucleus cell can then be both qualitatively and quantitatively evaluated from the recordings and the raw data accumulated and the results are expressed as an ID50 value (The dose in mg/kg of the test drug which causes 50% inhibition).
# [2] = target: T1, N-methyl-D-aspartate receptor (Rattus norvegicus, UniProt P35439); test: [3H]-glycine Binding Assay; design: species or system Sprague-Dawley rat; settings: 20 nM [3H]-glycine, rat cortex and hippocampus synaptic membranes, pH 7.1, 30 minutes at 4° C.
# T1 construct: Freshly dissected cortices and hippocampi are homogenized in 0.32M sucrose; from tissue; host or cells: cortices and hippocampi of adult male Sprague-Dawley rats, synaptic membranes
# Experimental: [^3 H]-glycine Binding Assay
# In the [^3 H]-glycine binding assay, neuronal synaptic membranes are prepared from adult (about 250 g) male Sprague-Dawley rats. Freshly dissected cortices and hippocampi are homogenized in 0.32M sucrose (110 mg/mL). Synaptosomes are isolated by centrifugation (1000×g, 10 minutes), the supernatant is pelleted (20,000×g, 20 minutes) resuspended in double-distilled water. The suspension was centrifuged for 20 minutes at 8,000×g. The resulting supernatant and buffy coat are washed twice (48,000×g, 10 minutes, resuspension in double-deionizedwater). The final pellet is quickly frozen (dry icelethanol bath) under double-deionized water and stored at -70° C.
# On the day of the experiment, thawed synaptic membranes are homogenized with a Brinkmann Polytron (TM, Brinkmann Instruments, Westbury, N.Y.) tissue homogenizer in 50 mM tris(hydroxymethyl)aminomethane citrate, pH 7.1. The membranes are incubated with 0.04% Sufact-AMPS X100 (TM, Pierce, Rockford, Ill.) in buffer for 20 minutes at 37° C. and washed six times by centrifugation (48,000×g, 10 minutes) and resuspended in buffer. The final pellet is homogenized at 200 mg wet weight/mL of the buffer for the binding assay.
# For [^3 H]-glycine binding at the N-methyl-D-aspartate receptor, 20 nM [^3 H]-glycine (40-60 Ci/mmol, New England Nuclear, Boston, Mass.) is incubated with the membranes suspended in 50 mM tris(hydroxymethyl)aminomethane citrate, pH 7.1 for 30 minutes at 4° C. Glycine, 1mM, is used to define the nonspecific binding. Bound [^3 H]-glycine is isolated from free using a Brandel (Biomedical Research and Development Laboratories, Gaithersburg, Md.) cell harvester for vacuum filtration over glass fiber filters (Whatman GFB from Brandel, Gaithersburg, Md.) presoaked in 0.025% polyethylenimine. The samples retained on the glass fiber filters are rinsed 3 times with a total of 2.5 mL ice cold buffer. Radioactivity is estimated by liquid scintillation counting. IC50 values are obtained from a least-squares regression of a logit-log transformation of the data.
# infarcted cortex = test: Rat Middle Cerebral Artery Test; type: in vivo, SHR rat; settings: intravenously, 10 mg/kg per hour over 4 hours; permanent MCA occlusion
# Experimental: Rat Middle Cerebral Artery Test
# Male SHR rats weight 280-320 g are used for these studies. The method used for permanent middle cerebral artery (MCA) occlusion is as described by Brint et al (1988). […] Following occlusions, drugs are administered intravenously via jugular catheter. Twenty-four hours after MCA/common carotid artery occlusion, the animals are sacrificed and their brains quickly removed. Coronal sections of 1 mm thickness are cut using a vibratome and stained with 2,3,5-triphenyl-2H-tetrazolium chloride (TTC) dye. Following staining, necrotic tissue is readily distinguished from the intact brain and the area of infarcted cortex can be traced on an image analyzer. The infarct volume for each section is quantified with an image analyzer, and the total infarct volume is calculated with a program that sums all interval volumes. See S. Brint et al. J. Cerebral Blood Flow 8:474-475 (1988). The statistical analysis of the difference between the volume of ischemic damage in the vehicle control and drug-treated animals is analyzed by Student's t-test. The results are expressed as the percent (%) change in infarct volume and are presented as the mean for animals.
# [3] = tested on: neuronal damage in the hippocampus; test: Gerbil Ischemic Model; type: in vivo, Mongolian gerbil; settings: ip twice (pre- and post-occlusion), 20 mg/kg body weight
# Experimental: Adult female Mongolian gerbils (50-70 g) are anesthetized with 2 to 3% halothane. The bilateral common carotid arteries at the neck are exposed and occluded with microaneurysm clips. After 10 min (unless specified), the clips are removed and the blood flow through the carotid arteries is restored and the skin is sutured. Test compounds are administered intraperitoneally both pre- and post-occlusion, for example 45 minutes before and 5 minutes after occlusion of the carotid arteries. Sham-operated animals are treated in the same manner except that the arteries are not clamped, gross behavioral observations along with motor activity are recorded for 2 hours on the first (24 hours) day following the occlusion. After 4 days, subjects are sacrificed (decapitation), brains are removed, fixed, sectioned and stained with hematoxylin/eosin and cresyl violet.
# The brain sections are rated for neuronal damage in the hippocampus using the following rating scale:
# 1=slight damage (up to 25%)--restricted to CA1 subiculum border
# 2=moderate damage (up to 50%)--obvious damage, restricted to less than half of CA1 field […]
# Sections (7 micron) are evaluated from each brain. […] The average brain damage rating score for each group is recorded, and the damage scores of the drug treated group are compared to the vehicle-treated group using Wilcoxcon-Rank Sum test. […]
# [4] = NMDA-induced excitatory response, compounds of the invention, read-out: ID50 (dose of the test drug which causes 50% inhibition)
smiles,measurement,setting,value
"C/C(=C\C(N)C(=O)O)CP(=O)(O)O (stereo not shown) [CGP 37849, reference compound]",ED50,[1]; read-out: ID50 of reference agents shown to be active in this test,1.7 mg/kg
"CC(C)OC(=O)c1n[nH]c2c(=O)[nH]c3cc(Cl)ccc3c(=O)c12 [Example 18, 7-Chloro-3-(isopropoxycarbonyl)pyrazolo[3,4-c][1]benzazepine-4,10(1H,9H)-dione]",pIC50,[2],7.19
same,change in infarct volume,infarcted cortex,-19%
same,ED50,[1]; [4],3.5 mg/kg
"CCCCOC(=O)c1n[nH]c2c(=O)[nH]c3cc(Cl)ccc3c(=O)c12 [Example 27, 3-butoxycarbonyl-7-chloropyrazolo[3,4c][1]benzazepine-4,10(1H,9H)-dione]",pIC50,[2],6.64
same,ED50,[1]; [4],5.7 mg/kg
"CCCOC(=O)c1n[nH]c2c(=O)[nH]c3cc(Cl)ccc3c(=O)c12 [Example 28, 3-propoxycarbonyl-7-chloropyrazolo[3,4-c][1]benzazepine-4,10(1H,9H)-dione]",pIC50,[2],7.57
same,ED50,[1]; [4],4.6 mg/kg
"O=c1[nH]c2cc(Cl)ccc2c(=O)c2n[nH]nc12 [Example 48(d), 7-Chloro-1,2,3-triazolo[4,5-c][1]benzazepine-4,10(1H,9H)-dione]",neuroprotection,[3],77%
"NC1CCN(O)C1=O (stereo not shown) [HA-966, reference compound]",ED50,"[1]; reference agents, read-out: ID50 of reference agents shown to be active in this test",7.9 mg/kg
